Measurements from US6737383B1, “Herbicidal oxadiazolidines” (priority 1999, dated 2004).

Tests used:
[1] = system: bedstraw; experiment: Test B pre/postemergence bedstraw; type: in vivo, Galium aparine
Procedure, shortened: (§1)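 Test chemicals in a non-phytotoxic solvent mixture with surfactant were sprayed preemergence onto planted seeds and postemergence onto plants 2 to 18 cm tall (1- to 4-leaf stage). After twelve to sixteen days in a greenhouse, injury was visually rated against untreated controls from 0 (no effect) to 10 (complete control).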

[2] = system: blackgrass; experiment: Test B pre/postemergence blackgrass; type: in vivo, Alopecurus myosuroides
Procedure, shortened: as §1

[3] = system: velvetleaf; experiment: Test B pre/postemergence velvetleaf; type: in vivo, Abutilon theophrasti
Procedure, shortened: as §1

[4] = system: wheat; experiment: Test B pre/postemergence wheat; type: in vivo, Triticum aestivum
Procedure, shortened: as §1

[5] = system: winter wheat; experiment: Test E winter wheat; type: in vivo, Triticum aestivum; conditions: Postemergence
Procedure, shortened: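 For postemergence, application to 1- to 4-leaf plants growing in a 60:40 sandy loam–potting mix substrate. Formulation: non-phytotoxic solvent mixture plus surfactant. Untreated controls served as the reference for the visual rating after ~21–28 days.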

[6] = system: blackgrass; experiment: Test E blackgrass; type: in vivo, Alopecurus myosuroides; conditions: Preemergence
[7] = system: green foxtail; experiment: Test E green foxtail; type: in vivo, Setaria viridis; conditions: Preemergence
[8] = system: Italian ryegrass; experiment: Test E Italian ryegrass; type: in vivo, Lolium multiflorum; conditions: Preemergence
[9] = system: winter wheat; experiment: Test E winter wheat; type: in vivo, Triticum aestivum; conditions: Preemergence
[10] = system: wild oat; experiment: Test E wild oat; type: in vivo, Avena fatua; conditions: Preemergence
[11] = system: winter barley; experiment: Test E winter barley; type: in vivo, Hordeum vulgare; conditions: Preemergence
[12] = Preemergence, Rate 62 g/ha, scale of 0 to 10 where 0 is no effect and 10 is complete control
[13] = Preemergence, Rate 250 g/ha, scale of 0 to 10 where 0 is no effect and 10 is complete control
[14] = Preemergence, Rate 500 g/ha, scale of 0 to 10 where 0 is no effect and 10 is complete control
[15] = Rate 125 g/ha, Preemergence, scale of 0 to 10 where 0 is no effect and 10 is complete control
[16] = Rate 62 g/ha, Postemergence, scale 0 to 10 (0 no effect, 10 complete control)
[17] = Rate 125 g/ha, Postemergence, scale of 0 to 10 where 0 is no effect and 10 is complete control
[18] = Rate 250 g/ha, Postemergence, scale of 0 to 10 where 0 is no effect and 10 is complete control
[19] = Rate 500 g/ha, Postemergence, scale 0 to 10, 0 no effect, 10 complete control
[20] = Rate 1000 g/ha, 0 to 100 scale where 0 is no effect and 100 is complete control
[21] = Rate 250 g/ha, 0 to 100 scale where 0 is no effect and 100 is complete control
[22] = Rate 500 g/ha, 0 to 100 scale, 0 is no effect, 100 is complete control
[23] = Rate 1000 g/ha, 0 to 100 scale, 0 no effect, 100 complete control
[24] = Rate 500 g/ha, 0 to 100 scale (0 no effect, 100 complete control)
[25] = Postemergence, Rate 125 g/ha, scale 0 to 10, 0 is no effect, 10 is complete control
[26] = Preemergence, Rate 62 g/ha, scale 0 to 10 (0 no effect, 10 complete control)
[27] = Rate 62 g/ha, Postemergence, scale of 0 to 10 where 0 is no effect and 10 is complete control
[28] = Rate 125 g/ha, 0 to 100 scale, 0 is no effect, 100 is complete control
[29] = Rate 125 g/ha, 0 to 100 scale (0 no effect, 100 complete control)
[30] = Rate 500 g/ha, 0 to 100 scale where 0 is no effect and 100 is complete control

For `CC1Cc2cccc(-n3c(=O)on(C(=O)N(c4ccc(F)cc4)C(C)C)c3=O)c2O1` (stereo not shown) [Compound 281], the “Bedstraw plant response rating” value [1, 12] was 0, the “Bedstraw plant response rating” value [1, 13] was 6 and the “Plant response rating, Bedstraw” value [1, 14] was 10. The “Bedstraw plant response rating” value [1, 15] was 3, the “Blackgrass plant response rating” value [2, 12] was 0 and the “Blackgrass plant response rating” value [2, 13] was 2. The “Plant response rating, Blackgrass” value [2, 14] was 4, the “Blackgrass plant response rating” value [2, 16] was 0 and the “Blackgrass plant response rating” value [2, 17] was 0. The “Blackgrass plant response rating” value [2, 15] was 1, the “Plant response rating, Blackgrass” value [2, 18] was 0 and the “Blackgrass plant response rating” value [2, 19] was 2. The “Velvetleaf plant response rating” value [3, 12] was 0, the “Velvetleaf plant response rating” value [3, 13] was 0 and the “Plant response rating, Velvetleaf” value [3, 14] was 0. The “Velvetleaf plant response rating” value [3, 16] was 0, the “Velvetleaf plant response rating” value [3, 17] was 1 and the “Velvetleaf plant response rating” value [3, 15] was 0. For the same compound, the “Plant response rating, Velvetleaf” value [3, 18] was 1, the “Velvetleaf plant response rating” value [3, 19] was 1 and the “Wheat plant response rating” value [4, 12] was 0. The “Wheat plant response rating” value [4, 13] was 0, the “Plant response rating, Wheat” value [4, 14] was 0 and the “Wheat plant response rating” value [4, 16] was 0. For the same compound, the “Wheat plant response rating” value [4, 17] was 0, the “Wheat plant response rating” value [4, 15] was 0 and the “Plant response rating, Wheat” value [4, 18] was 0. For the same compound, the “Wheat plant response rating” value [4, 19] was 0, the “Plant response rating, Wheat (winter)” value [5, 20] was 80 and the “Wheat (winter) plant response rating” value [5, 21] was 55. The “Plant response rating, Wheat (winter)” value [5, 22] was 70, the “Blackgrass plant response rating (0 to 100 scale)” value ([6]; Rate 250 g/ha) was 50 and the “Plant response rating, Blackgrass” value [6, 23] was 50. The “Green foxtail plant response rating (0 to 100 scale)” value ([7]; Rate 250 g/ha) was 100, the “Plant response rating, Green foxtail” value [7, 24] was 100 and the “Plant response rating, Green foxtail” value [7, 23] was 100. The “I. Ryegrass plant response rating (0 to 100 scale)” value ([8]; Rate 250 g/ha) was 60, the “Plant response rating, I. Ryegrass” value [8, 24] was 60 and the “Plant response rating, I. Ryegrass” value [8, 23] was 60. The “Wheat (winter) plant response rating (0 to 100 scale)” value ([9]; Rate 250 g/ha) was 60, the “Plant response rating, Wheat (winter)” value [9, 24] was 65 and the “Plant response rating, Wheat (winter)” value [9, 23] was 80. The “Wild oat plant response rating (0 to 100 scale)” value ([10]; Rate 250 g/ha) was 70, the “Plant response rating, Wild oat” value [10, 24] was 65 and the “Plant response rating, Wild oat” value [10, 23] was 80. The “Barley (winter) plant response rating (0 to 100 scale)” value ([11]; Rate 250 g/ha) was 70, the “Plant response rating, Barley (winter)” value [11, 24] was 70 and the “Plant response rating, Barley (winter)” value [11, 23] was 80.
For `CC(C)N(C(=O)n1oc(=O)n(C2CCC2)c1=O)c1ccc(F)cc1F` [Compound 351], the “Bedstraw plant response rating” value [1, 13] was 9, the “Bedstraw plant response rating” value [1, 14] was 10 and the “Plant response rating, Blackgrass” value [2, 25] was 2. For the same compound, the “Plant response rating, Blackgrass” value [2, 26] was 0, the “Blackgrass plant response rating (0 to 10 scale)” value ([2]; Preemergence, Rate 125 g/ha) was 2 and the “Blackgrass plant response rating” value [2, 13] was 3. The “Blackgrass plant response rating” value [2, 14] was 8, the “Blackgrass plant response rating” value [2, 27] was 0 and the “Plant response rating, Blackgrass” value [2, 18] was 4. For the same compound, the “Plant response rating, Blackgrass” value [2, 19] was 4, the “Plant response rating, Velvetleaf” value [3, 25] was 0 and the “Plant response rating, Velvetleaf” value [3, 26] was 0. The “Velvetleaf plant response rating (0 to 10 scale)” value ([3]; Preemergence, Rate 125 g/ha) was 3, the “Velvetleaf plant response rating” value [3, 13] was 4 and the “Velvetleaf plant response rating” value [3, 14] was 5. The “Velvetleaf plant response rating” value [3, 27] was 0, the “Plant response rating, Velvetleaf” value [3, 19] was 6 and the “Plant response rating, Wheat” value [4, 25] was 0. For the same compound, the “Plant response rating, Wheat” value [4, 26] was 0, the “Wheat plant response rating (0 to 10 scale)” value ([4]; Preemergence, Rate 125 g/ha) was 0 and the “Wheat plant response rating” value [4, 13] was 0. The “Wheat plant response rating” value [4, 14] was 2, the “Wheat plant response rating” value [4, 27] was 0 and the “Plant response rating, Wheat” value [4, 19] was 2. For the same compound, the “Plant response rating, Wheat (winter)” value [5, 28] was 60, the “Plant response rating, Wheat (winter)” value ([5]; Rate 250 g/ha, 0 to 100 scale, 0 is no effect, 100 is complete control) was 70 and the “Plant response rating, Wheat (winter)” value [5, 22] was 75. The “Plant response rating, Blackgrass” value [6, 29] was 35, the “Plant response rating, Blackgrass” value ([6]; Rate 250 g/ha, 0 to 100 scale) was 85 and the “Plant response rating, Blackgrass” value [6, 24] was 100. The “Plant response rating, Green foxtail” value [7, 29] was 40, the “Plant response rating, Green foxtail” value ([7]; Rate 250 g/ha, 0 to 100 scale) was 90 and the “Plant response rating, Green foxtail” value [7, 24] was 85. The “Plant response rating, I. Ryegrass” value [8, 29] was 55, the “Plant response rating, I. Ryegrass” value ([8]; Rate 250 g/ha, 0 to 100 scale) was 60 and the “Plant response rating, I. Ryegrass” value [8, 24] was 60. The “Plant response rating, Wheat (winter)” value [9, 29] was 50, the “Plant response rating, Wheat (winter)” value ([9]; Rate 250 g/ha, 0 to 100 scale) was 60 and the “Plant response rating, Wheat (winter)” value [9, 24] was 70. The “Plant response rating, Wild oat” value [10, 29] was 70, the “Plant response rating, Wild oat” value ([10]; Rate 250 g/ha, 0 to 100 scale) was 70 and the “Plant response rating, Wild oat” value [10, 24] was 80. For the same compound, the “Plant response rating, Barley (winter)” value [11, 29] was 70, the “Plant response rating, Barley (winter)” value ([11]; Rate 250 g/ha, 0 to 100 scale, 0 no effect, 100 complete control) was 70 and the “Plant response rating, Barley (winter)” value [11, 24] was 80.
In the case of `CC(C)N(C(=O)n1oc(=O)n(C2CCCC2)c1=O)c1ccc(F)cc1` [Compound 271], the “Bedstraw plant response rating” value [1, 12] is reported as 3, the “Bedstraw plant response rating” value [1, 13] is reported as 10 and the “Plant response rating, Bedstraw” value [1, 14] is reported as 10. The “Bedstraw plant response rating” value [1, 27] was 4, the “Bedstraw plant response rating” value [1, 17] was 6 and the “Bedstraw plant response rating” value [1, 15] was 10. The “Plant response rating, Bedstraw” value [1, 18] was 8, the “Bedstraw plant response rating” value [1, 19] was 8 and the “Blackgrass plant response rating” value [2, 12] was 8. The “Blackgrass plant response rating” value [2, 13] was 10, the “Plant response rating, Blackgrass” value [2, 14] was 10 and the “Blackgrass plant response rating” value [2, 27] was 3. For the same compound, the “Blackgrass plant response rating” value [2, 17] was 4, the “Blackgrass plant response rating” value [2, 15] was 9 and the “Plant response rating, Blackgrass” value [2, 18] was 8. The “Blackgrass plant response rating” value [2, 19] was 8, the “Velvetleaf plant response rating” value [3, 12] was 2 and the “Velvetleaf plant response rating” value [3, 13] was 7. The “Plant response rating, Velvetleaf” value [3, 14] was 8, the “Velvetleaf plant response rating” value [3, 17] was 0 and the “Velvetleaf plant response rating” value [3, 15] was 4. For the same compound, the “Plant response rating, Velvetleaf” value [3, 18] was 0, the “Velvetleaf plant response rating” value [3, 19] was 3 and the “Wheat plant response rating” value [4, 12] was 0. For the same compound, the “Wheat plant response rating” value [4, 13] was 0, the “Plant response rating, Wheat” value [4, 14] was 3 and the “Wheat plant response rating” value [4, 17] was 0. For the same compound, the “Wheat plant response rating” value [4, 15] was 0, the “Plant response rating, Wheat” value [4, 18] was 0 and the “Wheat plant response rating” value [4, 19] was 0. For the same compound, the “Plant response rating, Wheat (winter)” value [5, 28] was 10, the “Plant response rating, Wheat (winter)” value [5, 20] was 0 and the “Wheat (winter) plant response rating” value [5, 21] was 10. For the same compound, the “Plant response rating, Wheat (winter)” value [5, 22] was 0, the “Plant response rating, Blackgrass” value [6, 29] was 30 and the “Blackgrass plant response rating (0 to 100 scale)” value ([6]; Rate 250 g/ha) was 100. The “Plant response rating, Blackgrass” value [6, 30] was 80, the “Plant response rating, Blackgrass” value [6, 23] was 100 and the “Plant response rating, Green foxtail” value [7, 29] was 70. The “Green foxtail plant response rating (0 to 100 scale)” value ([7]; Rate 250 g/ha) was 100, the “Plant response rating, Green foxtail” value [7, 30] was 100 and the “Plant response rating, Green foxtail” value [7, 23] was 100. For the same compound, the “Plant response rating, I. Ryegrass” value [8, 29] was 60, the “I. Ryegrass plant response rating (0 to 100 scale)” value ([8]; Rate 250 g/ha) was 100 and the “Plant response rating, I. Ryegrass” value [8, 30] was 85. For the same compound, the “Plant response rating, I. Ryegrass” value [8, 23] was 100, the “Plant response rating, Wheat (winter)” value [9, 29] was 30 and the “Wheat (winter) plant response rating (0 to 100 scale)” value ([9]; Rate 250 g/ha) was 60. The “Plant response rating, Wheat (winter)” value [9, 30] was 50, the “Plant response rating, Wheat (winter)” value [9, 23] was 75 and the “Plant response rating, Wild oat” value [10, 29] was 50. The “Wild oat plant response rating (0 to 100 scale)” value ([10]; Rate 250 g/ha) was 60, the “Plant response rating, Wild oat” value [10, 30] was 65 and the “Plant response rating, Wild oat” value [10, 23] was 60. The “Plant response rating, Barley (winter)” value [11, 29] was 35, the “Barley (winter) plant response rating (0 to 100 scale)” value ([11]; Rate 250 g/ha) was 45 and the “Plant response rating, Barley (winter)” value [11, 30] was 50. The “Plant response rating, Barley (winter)” value [11, 23] was 60.
